Measured values as given in article PMC5563081, “Modulating Protein-Protein Interactions of the Mitotic Polo-like Kinases to Target Mutant KRAS” (Cell Chemical Biology, 2017).
Like-named read-outs stand apart in the source and are kept apart here.

Tests used:
[1] = system: Panc-1; test: Cell viability (SRB), Panc-1; format: cell-based, human; conditions: Homo sapiens, PANC-1, 72 h; for GI50: read-out: Abs GI50
Method: (§1) SW48 Parental, SW48 G12D, Panc-1, HPAF-II, Panc 02.03 and Panc 05.04 cell lines were seeded overnight at 5000 cells per well in a 96 well plate in recommended media (ATCC). Compounds were added the following day and viability was measured at 72h using the sulforhodamine B (SRB) colorimetric assay as follows. Cells were fixed by replacing media with 1% v/v Trichloroacetic Acid (TCA) (Sigma-Aldrich) at 4°C and incubated for 1h also at 4°C. Wells were washed thoroughly with copious amounts of deionised water before staining with Sulforhodamine B (SRB) (Sigma-Aldrich) solution (0.057% w/v in 1% v/v Acetic Acid (VWR)) for 30 min. Stain was aspirated and wells washed with several changes of 1% v/v Acetic Acid until unbound stain was removed, before air-drying. Bound stain was solubilized with 100μl / well 10mM Tris (pH 8.0) (Trizma Base (121.1) Sigma-Aldrich) with agitation for 10 min. Fluorescence intensity was recorded at Ex540nm / Em590nm using a BMG Pherastar Plus plate reader ([Vichai and Kirtikara, 2006]).
Pancreatic organoids were extracted and cultured as detailed above ([Boj et al., 2015]). In brief, pancreatic organoids were seeded at 600 cells per well in a 96 well plate and allowed to grow for 7 days with media replenishment on the 3rd day. Full-grown organoids were then treated with compounds for 72h and viability determined using CellTitre Glo 3D assay (Promega). For viability assays with c-MET siRNA, cells were reverse transfected in a 6 cm dish using Dharmafect 1 (GE Dharmacon) per manufacturer’s instructions. On the following day, cells were trypsinised and plated onto 96 well plates or 6 well plates. The 96 well plates were treated with a dose range of compounds or DMSO, and viability was determined via SRB colorimetric assay. Cells in the 6 well plates were collected at the end of experiment to corroborate knockdown of c-MET by Western blotting.
Cells were reverse-transfected with 50nM (SW48 parental, SW48 KRAS G12D and Panc-1) or 25nM (HeLa Flp-In T-REx parental cells) siRNA using Dharmafect (GE Dharmacon) as manufacturer’s recommendations. Where transfected cells were subsequently treated with compounds, the cells were allowed to settle overnight and then treated with compound at the indicated concentration the following day. Viability was assessed after 72 hrs, with the SRB colorimetric assay. Knockdown efficiencies were determined by Western blot or RT-qPCR. Oligos against the following target sequences were used. c-MET (Qiagen): […], […], […]. PLK1 (Qiagen): […]. PLK2 (SMARTpool; Dharmacon): ACACAGAAGGAGAACGAUA, CAUCAAUGAGGAUAGGAUA, CUGCCUAGUGUUACUGAUA, ACAAAGUCUACGCCGCAAA. PLK3 (SMARTpool; Dharmacon): GCGAGAAGAUCCUAAAUGA, GCAAGUGGGUUGACUACUC, GCACAUCCGUUGGCCAUCA, GACCUCAAGUUGGGAAAUU. PLK4 (Qiagen): […].

[2] = system: SW48 parental (KRAS WT) cells; test: Cell viability (SRB), SW48 parental; format: cell-based; conditions: Homo sapiens
Method: as §1

[3] = system: HeLa cells; test: Mitotic index assay in HeLa cells; format: cell-based, human; conditions: for EC50: Homo sapiens
Method: Cells were plated at 10 000/well in 96-well plates and incubated overnight. The following day compound stocks in DMSO were diluted in medium then added to cells with a maximum final DMSO concentration on cells of 0.2%. […] Cells were permeabilised with 0.1% Triton X-100 then incubated with anti-phospho-histone H3 (Ser10) antibody (Abcam ab5176). The cells were washed with PBS then incubated with AlexaFluor 488 labelled goat anti-rabbit IgG (Invitrogen A11034) in the presence of 4ug/ml Hoechst 33342 (Invitrogen H3570). Cells were washed in PBS then imaged on an Arrayscan VTi HCS instrument (Thermo Fisher) using the Target Activation V4 Bioapplication. A user-defined threshold was applied to identify mitotic cells based on the intensity of phospho-histone H3 staining.

[4] = system: SW48 KRAS G12D cells; test: Cell viability (SRB), SW48 KRAS G12D; format: cell-based; conditions: Homo sapiens
Method: as §1

[5] = biological target: T1, CHUK (Homo sapiens, UniProt O15111); test: DiscoverX KINOMEscan; format: binding; conditions: read-out: % Control
T1 construct: purchased DiscoverX KINOMEscan
Method: (§2) A panel of 55 proteins (comprising 51 human kinases structurally or functionally related to the PLKs, plus the kinase catalytic domains of PLK1, PLK2, PLK3 and PLK4) were selected for testing by DiscoverX using the KINOMEscan assay platform. Compounds were supplied as 40x DMSO stocks and were tested at a final concentration of 50μM for Poloppin and 5μM for Poloppin-II. Binding interactions were reported as percentage of control where lower numbers indicate stronger binding. A cut-off of <35% was applied to report significant binding.

[6] = biological target: T2, ROCK2 (Homo sapiens, UniProt O75116); test: DiscoverX KINOMEscan; format: binding; conditions: read-out: % Control
T2 construct: purchased DiscoverX KINOMEscan
Method: as §2

[7] = biological target: T3, STK36 (Homo sapiens, UniProt Q9NRP7); test: DiscoverX KINOMEscan; format: binding; conditions: read-out: % Control
T3 construct: purchased DiscoverX KINOMEscan
Method: as §2

[8] = biological target: T4, CAMKK1 (Homo sapiens, UniProt Q8N5S9); test: DiscoverX KINOMEscan; format: binding; conditions: read-out: % Control
T4 construct: purchased DiscoverX KINOMEscan
Method: as §2

[9] = biological target: T5, CAMKK2 (Homo sapiens, UniProt Q96RR4); test: DiscoverX KINOMEscan; format: binding; conditions: read-out: % Control
T5 construct: purchased DiscoverX KINOMEscan
Method: as §2

[10] = biological target: T6, WNK2 (Homo sapiens, UniProt Q9Y3S1); test: DiscoverX KINOMEscan; format: binding; conditions: read-out: % Control
T6 construct: purchased DiscoverX KINOMEscan
T6 sequence (Q9Y3S1 whole entry): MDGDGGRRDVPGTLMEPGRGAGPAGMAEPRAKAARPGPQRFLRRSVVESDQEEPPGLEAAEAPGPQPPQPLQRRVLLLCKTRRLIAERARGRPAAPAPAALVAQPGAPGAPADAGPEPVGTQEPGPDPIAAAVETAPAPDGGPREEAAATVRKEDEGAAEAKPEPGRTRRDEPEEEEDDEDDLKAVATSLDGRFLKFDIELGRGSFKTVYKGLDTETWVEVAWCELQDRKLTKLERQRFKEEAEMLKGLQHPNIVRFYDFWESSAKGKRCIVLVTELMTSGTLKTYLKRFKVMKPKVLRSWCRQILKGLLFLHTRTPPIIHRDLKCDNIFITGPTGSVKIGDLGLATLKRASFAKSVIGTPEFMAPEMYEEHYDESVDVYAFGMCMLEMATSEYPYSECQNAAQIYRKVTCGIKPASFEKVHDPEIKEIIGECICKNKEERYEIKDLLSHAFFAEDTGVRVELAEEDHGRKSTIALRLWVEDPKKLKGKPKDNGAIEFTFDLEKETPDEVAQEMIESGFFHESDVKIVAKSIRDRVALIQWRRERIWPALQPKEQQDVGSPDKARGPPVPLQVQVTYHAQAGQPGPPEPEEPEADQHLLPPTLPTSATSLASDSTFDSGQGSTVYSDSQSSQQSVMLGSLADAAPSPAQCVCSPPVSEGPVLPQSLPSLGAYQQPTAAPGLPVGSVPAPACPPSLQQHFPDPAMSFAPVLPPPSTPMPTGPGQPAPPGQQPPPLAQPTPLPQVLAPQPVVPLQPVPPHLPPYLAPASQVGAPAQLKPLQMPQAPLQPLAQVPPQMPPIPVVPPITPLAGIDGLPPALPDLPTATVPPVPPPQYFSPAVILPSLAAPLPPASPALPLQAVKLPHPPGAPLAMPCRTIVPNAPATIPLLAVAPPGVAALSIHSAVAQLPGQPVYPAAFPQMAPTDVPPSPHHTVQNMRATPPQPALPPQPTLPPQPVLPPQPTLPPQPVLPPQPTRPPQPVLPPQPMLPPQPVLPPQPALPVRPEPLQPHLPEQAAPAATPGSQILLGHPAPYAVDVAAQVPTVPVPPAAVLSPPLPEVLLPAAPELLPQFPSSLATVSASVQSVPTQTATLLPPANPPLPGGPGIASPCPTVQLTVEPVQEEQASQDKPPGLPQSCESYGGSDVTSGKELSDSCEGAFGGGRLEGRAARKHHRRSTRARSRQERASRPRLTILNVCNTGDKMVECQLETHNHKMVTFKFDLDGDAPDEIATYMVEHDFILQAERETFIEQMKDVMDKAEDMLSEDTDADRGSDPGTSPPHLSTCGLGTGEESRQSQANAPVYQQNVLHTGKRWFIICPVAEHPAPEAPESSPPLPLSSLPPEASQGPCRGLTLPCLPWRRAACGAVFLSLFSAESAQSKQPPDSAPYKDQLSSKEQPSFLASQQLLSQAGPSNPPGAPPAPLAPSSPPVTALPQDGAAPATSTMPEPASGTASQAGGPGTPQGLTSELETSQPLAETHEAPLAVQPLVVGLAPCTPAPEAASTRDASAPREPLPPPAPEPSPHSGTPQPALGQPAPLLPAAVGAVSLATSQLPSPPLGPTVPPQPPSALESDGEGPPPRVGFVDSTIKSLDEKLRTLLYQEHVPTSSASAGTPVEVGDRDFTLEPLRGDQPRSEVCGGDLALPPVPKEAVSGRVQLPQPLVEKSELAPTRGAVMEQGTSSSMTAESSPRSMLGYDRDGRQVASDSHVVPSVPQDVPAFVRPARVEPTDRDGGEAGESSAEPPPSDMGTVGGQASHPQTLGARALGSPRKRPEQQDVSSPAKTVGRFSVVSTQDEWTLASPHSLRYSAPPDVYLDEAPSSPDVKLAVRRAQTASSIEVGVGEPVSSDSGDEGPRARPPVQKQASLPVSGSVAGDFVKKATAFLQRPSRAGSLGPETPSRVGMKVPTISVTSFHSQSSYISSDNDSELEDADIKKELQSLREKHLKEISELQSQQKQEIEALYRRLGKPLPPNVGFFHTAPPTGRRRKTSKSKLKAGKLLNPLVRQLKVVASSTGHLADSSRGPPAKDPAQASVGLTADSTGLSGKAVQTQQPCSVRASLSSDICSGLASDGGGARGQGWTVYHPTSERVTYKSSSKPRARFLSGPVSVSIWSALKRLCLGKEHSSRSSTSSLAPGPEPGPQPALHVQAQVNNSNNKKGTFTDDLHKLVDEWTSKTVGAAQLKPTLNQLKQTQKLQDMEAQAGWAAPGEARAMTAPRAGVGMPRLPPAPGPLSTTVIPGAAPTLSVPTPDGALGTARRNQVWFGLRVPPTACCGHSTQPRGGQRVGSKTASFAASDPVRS
Method: as §2

[11] = biological target: T7, AURKA (Homo sapiens, UniProt O14965); test: DiscoverX KINOMEscan; format: binding; conditions: read-out: % Control
T7 construct: purchased DiscoverX KINOMEscan
Method: as §2

[12] = biological target: T8, SBK1 (Homo sapiens, UniProt Q52WX2); test: DiscoverX KINOMEscan; format: binding; conditions: read-out: % Control
T8 construct: purchased DiscoverX KINOMEscan
Method: as §2

[13] = biological target: T9, AAK1 (Homo sapiens, UniProt Q2M2I8); test: DiscoverX KINOMEscan; format: binding; conditions: read-out: % Control
T9 construct: purchased DiscoverX KINOMEscan
T9 sequence (Q2M2I8 whole entry): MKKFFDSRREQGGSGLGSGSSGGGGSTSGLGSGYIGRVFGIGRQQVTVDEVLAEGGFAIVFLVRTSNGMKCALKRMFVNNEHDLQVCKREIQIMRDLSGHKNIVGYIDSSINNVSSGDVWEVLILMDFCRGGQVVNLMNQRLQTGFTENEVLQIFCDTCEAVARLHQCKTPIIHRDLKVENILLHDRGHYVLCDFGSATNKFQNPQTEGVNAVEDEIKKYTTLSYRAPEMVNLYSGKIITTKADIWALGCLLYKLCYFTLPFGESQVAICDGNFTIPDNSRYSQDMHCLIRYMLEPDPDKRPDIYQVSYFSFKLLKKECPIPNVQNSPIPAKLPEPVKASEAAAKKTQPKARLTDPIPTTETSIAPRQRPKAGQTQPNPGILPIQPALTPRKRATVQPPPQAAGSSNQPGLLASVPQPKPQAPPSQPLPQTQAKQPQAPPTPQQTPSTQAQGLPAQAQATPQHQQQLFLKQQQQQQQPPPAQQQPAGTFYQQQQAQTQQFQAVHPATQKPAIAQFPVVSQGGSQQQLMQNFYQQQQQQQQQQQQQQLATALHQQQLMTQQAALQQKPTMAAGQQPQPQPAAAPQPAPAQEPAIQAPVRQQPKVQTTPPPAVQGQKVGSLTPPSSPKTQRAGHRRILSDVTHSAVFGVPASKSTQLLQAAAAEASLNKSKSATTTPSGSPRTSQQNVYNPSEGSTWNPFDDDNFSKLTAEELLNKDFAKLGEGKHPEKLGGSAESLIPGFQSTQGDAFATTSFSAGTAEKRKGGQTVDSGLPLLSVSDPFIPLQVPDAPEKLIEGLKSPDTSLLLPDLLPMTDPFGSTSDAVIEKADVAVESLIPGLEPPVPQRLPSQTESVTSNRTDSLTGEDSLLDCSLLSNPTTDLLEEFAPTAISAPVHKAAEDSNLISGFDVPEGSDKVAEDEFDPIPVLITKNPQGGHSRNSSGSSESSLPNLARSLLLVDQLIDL
Method: as §2

[14] = biological target: T10, PLK4 kinase catalytic domain (Homo sapiens, UniProt O00444); test: DiscoverX KINOMEscan; format: binding; conditions: read-out: % Control
T10 construct: PLK4 kinase catalytic domain; purchased DiscoverX KINOMEscan
Method: as §2

[15] = biological target: T11, ERN1 (Homo sapiens, UniProt O75460); test: DiscoverX KINOMEscan; format: binding; conditions: read-out: % Control
T11 construct: purchased DiscoverX KINOMEscan
T11 sequence (O75460 19-977): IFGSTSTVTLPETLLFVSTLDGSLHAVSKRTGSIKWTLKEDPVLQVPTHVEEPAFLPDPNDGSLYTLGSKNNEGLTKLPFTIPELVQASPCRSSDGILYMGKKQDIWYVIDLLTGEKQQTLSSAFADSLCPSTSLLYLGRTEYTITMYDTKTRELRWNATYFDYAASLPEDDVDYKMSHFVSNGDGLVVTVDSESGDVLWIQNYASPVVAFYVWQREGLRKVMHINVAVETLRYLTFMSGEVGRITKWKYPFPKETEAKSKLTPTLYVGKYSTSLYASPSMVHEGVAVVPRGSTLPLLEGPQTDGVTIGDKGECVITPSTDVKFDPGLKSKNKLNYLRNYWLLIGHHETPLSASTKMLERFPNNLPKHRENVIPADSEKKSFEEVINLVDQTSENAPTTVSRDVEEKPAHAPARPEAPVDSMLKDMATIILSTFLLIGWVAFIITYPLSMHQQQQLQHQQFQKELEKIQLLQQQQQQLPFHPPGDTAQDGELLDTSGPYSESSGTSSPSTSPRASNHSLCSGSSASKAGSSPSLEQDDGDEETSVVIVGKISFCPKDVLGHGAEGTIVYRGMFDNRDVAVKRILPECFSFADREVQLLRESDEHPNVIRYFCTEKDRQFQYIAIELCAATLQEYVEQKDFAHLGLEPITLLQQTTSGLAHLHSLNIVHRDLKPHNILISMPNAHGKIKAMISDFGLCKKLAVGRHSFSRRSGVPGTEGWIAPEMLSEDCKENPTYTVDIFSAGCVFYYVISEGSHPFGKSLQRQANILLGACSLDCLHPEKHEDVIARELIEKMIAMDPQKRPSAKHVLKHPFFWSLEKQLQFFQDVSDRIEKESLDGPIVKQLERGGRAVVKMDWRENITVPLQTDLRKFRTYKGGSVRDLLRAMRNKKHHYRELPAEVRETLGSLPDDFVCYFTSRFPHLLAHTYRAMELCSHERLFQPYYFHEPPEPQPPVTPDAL
Method: as §2

[16] = biological target: T12, NEK9 (Homo sapiens, UniProt Q8TD19); test: DiscoverX KINOMEscan; format: binding; conditions: read-out: % Control
T12 construct: purchased DiscoverX KINOMEscan
Method: as §2

[17] = biological target: T13, TTK (Homo sapiens, UniProt P33981); test: DiscoverX KINOMEscan; format: binding; conditions: read-out: % Control
T13 construct: purchased DiscoverX KINOMEscan
T13 sequence (P33981 whole entry): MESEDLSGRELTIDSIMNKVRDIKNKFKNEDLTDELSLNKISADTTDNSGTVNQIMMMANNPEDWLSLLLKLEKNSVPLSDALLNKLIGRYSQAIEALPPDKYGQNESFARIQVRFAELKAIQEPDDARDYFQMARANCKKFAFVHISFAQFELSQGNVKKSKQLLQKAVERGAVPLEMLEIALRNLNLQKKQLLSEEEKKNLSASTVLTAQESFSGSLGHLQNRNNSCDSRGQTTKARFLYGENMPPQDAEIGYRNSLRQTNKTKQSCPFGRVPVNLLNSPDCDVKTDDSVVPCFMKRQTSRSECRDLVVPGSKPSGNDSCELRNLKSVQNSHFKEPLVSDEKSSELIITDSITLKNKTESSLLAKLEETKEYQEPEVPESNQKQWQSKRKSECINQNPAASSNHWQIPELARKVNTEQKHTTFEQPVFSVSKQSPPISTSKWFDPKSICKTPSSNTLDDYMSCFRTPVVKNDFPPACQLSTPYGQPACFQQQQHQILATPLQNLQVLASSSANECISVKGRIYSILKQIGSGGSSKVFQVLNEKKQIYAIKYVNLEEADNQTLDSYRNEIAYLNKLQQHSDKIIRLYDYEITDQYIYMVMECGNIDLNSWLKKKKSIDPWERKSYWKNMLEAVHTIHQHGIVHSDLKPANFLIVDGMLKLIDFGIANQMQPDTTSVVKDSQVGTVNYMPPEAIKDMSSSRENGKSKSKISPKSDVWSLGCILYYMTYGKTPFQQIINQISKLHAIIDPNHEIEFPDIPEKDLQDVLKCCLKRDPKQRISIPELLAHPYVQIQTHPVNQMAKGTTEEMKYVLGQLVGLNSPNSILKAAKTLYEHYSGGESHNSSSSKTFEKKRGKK
Method: as §2

[18] = biological target: T14, EIF2AK1 (Homo sapiens, UniProt Q9BQI3); test: DiscoverX KINOMEscan; format: binding; conditions: read-out: % Control
T14 construct: purchased DiscoverX KINOMEscan
Method: as §2

[19] = HeLa, Figure 5A, read-out: MI EC50 (cellular assay for mitotic arrest)

With CN(C)CCNC(=O)c1ccc(-c2ccc(-c3ccc(Cl)cc3)n2-c2ccccc2C(F)(F)F)cc1 [Poloppin-II] the GI50 ([1]; Panc-1, individual compound, 72 hr, Figure 7G) was 0.314 µM, the GI50 ([2]; SW48 Parental, 72 hr, Figure 5D, read-out: GI50) was 0.0398 ± 0.00112 µM and the EC50 [3, 19] was 0.069 µM. The EC50 ([3]; HeLa cells, Figure 5B, read-out: half maximal effective concentration, cellular assay for mitotic arrest) was 0.061 µM, the GI50 ([4]; SW48 G12D, 72 hr, Figure 5D, read-out: GI50) was 0.0115 ± 0.00109 µM and the remaining binding at 5 µM ([5]; CHUK, Poloppin-II 5µM, hit <35%) was 100%. For the same compound, the remaining binding at 5 µM ([6]; ROCK2, Poloppin-II 5µM, hit <35%) was 100%, the remaining binding at 5 µM ([7]; STK36, Poloppin-II 5µM, hit <35%) was 91% and the remaining binding at 5 µM ([8]; CAMKK1, Poloppin-II 5µM, hit <35%) was 91%. For the same compound, the remaining binding at 5 µM ([9]; CAMKK2, Poloppin-II 5µM, hit <35%) was 97%, the remaining binding at 5 µM ([10]; WNK2, Poloppin-II 5µM, hit <35%) was 100% and the remaining binding at 5 µM ([11]; AURKA, Poloppin-II 5µM, hit <35%) was 83%. It also gave a remaining binding at 5 µM ([12]; SBK1, Poloppin-II 5µM, hit <35%) of 61%, a remaining binding at 5 µM ([13]; AAK1, Poloppin-II 5µM, hit <35%) of 100% and a remaining binding at 5 µM ([14]; PLK4, Poloppin-II 5µM, hit <35%) of 90%. The remaining binding at 5 µM ([15]; ERN1, Poloppin-II 5µM, hit <35%) was 74%, the remaining binding at 5 µM ([16]; NEK9, Poloppin-II 5µM, hit <35%) was 92% and the remaining binding at 5 µM ([17]; TTK, Poloppin-II 5µM, hit <35%) was 83%. The remaining binding at 5 µM ([18]; EIF2AK1, Poloppin-II 5µM, hit <35%) was 98%.

O=C(O)CCc1ccc(-c2ccc(Br)cc2)n1-c1ccccc1C(F)(F)F [Poloppin] gave a GI50 [1] of 33.4 µM, an EC50 ([1]; read-out: EC50, % survival, Panc-1, All Stars control siRNA, 72 h) of 40.4 ± 1.03 µM and an EC50 ([1]; read-out: EC50, % survival, Panc-1, siMET, 72 h) of 16.8 ± 1.03 µM. For the same compound, the GI50 ([2]; SW48) was 13.7 ± 1.03 µM, the “EC50, mitotic index assay” value ([3]; HeLa cells treated for 16 hr, Figure 5B) was 14.6 µM and the EC50 [3, 19] was 14.1 µM. For the same compound, the GI50 ([4]; SW48) was 5.3 ± 1.03 µM, the remaining binding at 50 µM [5] was 100% and the remaining binding at 50 µM [6] was 100%. It also gave a remaining binding at 50 µM [7] of 91%, a remaining binding at 50 µM [8] of 77% and a remaining binding at 50 µM [9] of 82%. For the same compound, the remaining binding at 50 µM [10] was 100%, the remaining binding at 50 µM [11] was 81% and the remaining binding at 50 µM [12] was 61%. The remaining binding at 50 µM [13] was 92%, the remaining binding at 50 µM [14] was 88% and the remaining binding at 50 µM [15] was 76%. It also gave a remaining binding at 50 µM [16] of 95%, a remaining binding at 50 µM [17] of 85% and a remaining binding at 50 µM [18] of 97%.
